Experimental data reported in PubChem BioAssay AID1963848 (Molecular Pharmacology Branch, DTP, NCI, 2024).
pIC50: −log10 of the molar value.

System: 379773-124-R-J2-PDC spheroid viability
Test: Anticancer human tumor 379773-124-R-J2-PDC patient-derived endometrial carcinoma cell line growth inhibition [POLQ]
Conditions: spheroids with HUVEC and MSC; for pIC50: curve of first compound; for viability, T/C: stronger effect = lower value
In short: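 Growth inhibition in 3D: complex spheroids (tumor PDC, HUVEC, MSC) treated with POLQ inhibitor combinations; where Cmax unknown, highest tested concentration 10 microM, except SN-38 at 1 microM.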

[1] = second compound 0.0316 µM, first compound 0.0316 µM
[2] = second compound 0.0316 µM, first compound 0.1 µM
[3] = second compound 0.0316 µM, first compound 0.316 µM
[4] = second compound 0.0316 µM, first compound 1 µM
[5] = second compound 0.0316 µM, first compound 3.16 µM
[6] = second compound 0.0316 µM, first compound 10 µM
[7] = second compound 0.1 µM, first compound 0.0316 µM
[8] = second compound 0.1 µM, first compound 0.1 µM
[9] = second compound 0.1 µM, first compound 0.316 µM
[10] = second compound 0.1 µM, first compound 1 µM
[11] = second compound 0.1 µM, first compound 3.16 µM
[12] = second compound 0.1 µM, first compound 10 µM
[13] = second compound 0.316 µM, first compound 0.0316 µM
[14] = second compound 0.316 µM, first compound 0.1 µM
[15] = second compound 0.316 µM, first compound 0.316 µM
[16] = second compound 0.316 µM, first compound 1 µM
[17] = second compound 0.316 µM, first compound 3.16 µM
[18] = second compound 0.316 µM, first compound 10 µM
[19] = second compound 1 µM, first compound 0.0316 µM
[20] = second compound 1 µM, first compound 0.1 µM
[21] = second compound 1 µM, first compound 0.316 µM
[22] = second compound 1 µM, first compound 1 µM
[23] = second compound 1 µM, first compound 3.16 µM
[24] = second compound 1 µM, first compound 10 µM
[25] = second compound 3.16 µM, first compound 0.0316 µM
[26] = second compound 3.16 µM, first compound 0.1 µM
[27] = second compound 3.16 µM, first compound 0.316 µM
[28] = second compound 3.16 µM, first compound 1 µM
[29] = second compound 3.16 µM, first compound 3.16 µM
[30] = second compound 3.16 µM, first compound 10 µM
[31] = second compound 10 µM, first compound 0.0316 µM
[32] = second compound 10 µM, first compound 0.1 µM
[33] = second compound 10 µM, first compound 0.316 µM
[34] = second compound 10 µM, first compound 1 µM
[35] = second compound 10 µM, first compound 3.16 µM
[36] = second compound 10 µM, first compound 10 µM
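Further: spheroids exposed to drugs for seven days before readout.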
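Wherever viability, T/C is given: percent viability relative to DMSO vehicle control taken as 100%.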

SMILES: CC1COCCN1c1cc(C2(S(C)(=N)=O)CC2)nc(-c2ccnc3[nH]ccc23)n1 (centres undefined) + Nc1ccc(C#CCN(C(=O)Cc2ncc(C(F)(F)F)cc2C(F)(F)F)c2ccc(F)cc2)nn1
- pIC50 (second compound 0.0316 µM): 5.56
- pIC50 (second compound 0.1 µM): 5.51
- pIC50 (second compound 0.316 µM): 5.57
- pIC50 (second compound 1 µM): 5.52
- pIC50 (second compound 3.16 µM): 5.60
- pIC50 (second compound 10 µM): 5.58
- viability, T/C [1]: 89.8%
- viability, T/C [2]: 90.3%
- viability, T/C [3]: 86.5%
- viability, T/C [4]: 89.9%
- viability, T/C [5]: 44.8%
- viability, T/C [6]: 9.42%
- viability, T/C [7]: 89.2%
- viability, T/C [8]: 89.6%
- viability, T/C [9]: 87.9%
- viability, T/C [10]: 83.5%
- viability, T/C [11]: 49.1%
- viability, T/C [12]: 9.47%
- viability, T/C [13]: 89.8%
- viability, T/C [14]: 97.5%
- viability, T/C [15]: 87.1%
- viability, T/C [16]: 84.4%
- viability, T/C [17]: 44%
- viability, T/C [18]: 10.4%
- viability, T/C [19]: 97.9%
- viability, T/C [20]: 101%
- viability, T/C [21]: 87.9%
- viability, T/C [22]: 85.3%
- viability, T/C [23]: 48.1%
- viability, T/C [24]: 10.3%
- viability, T/C [25]: 93.5%
- viability, T/C [26]: 85.6%
- viability, T/C [27]: 78.5%
- viability, T/C [28]: 89.3%
- viability, T/C [29]: 41.3%
- viability, T/C [30]: 11.1%
- viability, T/C [31]: 95.7%
- viability, T/C [32]: 85.3%
- viability, T/C [33]: 90.9%
- viability, T/C [34]: 86.4%
- viability, T/C [35]: 43.2%
- viability, T/C [36]: 9.54%

SMILES: COc1cc(C2c3cc4c(cc3C(OC3OC5COC(C)OC5C(O)C3O)C3COC(=O)C23)OCO4)cc(OC)c1O (centres undefined) + Nc1ccc(C#CCN(C(=O)Cc2ncc(C(F)(F)F)cc2C(F)(F)F)c2ccc(F)cc2)nn1
- pIC50 (second compound 0.0316 µM): 5.82
- pIC50 (second compound 0.1 µM): 5.80
- pIC50 (second compound 0.316 µM): 5.83
- pIC50 (second compound 1 µM): 5.91
- pIC50 (second compound 3.16 µM): 5.85
- pIC50 (second compound 10 µM): 5.91
- viability, T/C [1]: 95.4%
- viability, T/C [2]: 116%
- viability, T/C [3]: 81.9%
- viability, T/C [4]: 70.4%
- viability, T/C [5]: 17%
- viability, T/C [6]: 15.5%
- viability, T/C [7]: 98.8%
- viability, T/C [8]: 86%
- viability, T/C [9]: 90%
- viability, T/C [10]: 70.2%
- viability, T/C [11]: 18.6%
- viability, T/C [12]: 14.1%
- viability, T/C [13]: 92.5%
- viability, T/C [14]: 116%
- viability, T/C [15]: 97%
- viability, T/C [16]: 67.4%
- viability, T/C [17]: 15.9%
- viability, T/C [18]: 16.8%
- viability, T/C [19]: 99.1%
- viability, T/C [20]: 96.2%
- viability, T/C [21]: 78.4%
- viability, T/C [22]: 62.2%
- viability, T/C [23]: 17.3%
- viability, T/C [24]: 13.8%
- viability, T/C [25]: 94.1%
- viability, T/C [26]: 96.1%
- viability, T/C [27]: 81.7%
- viability, T/C [28]: 65.1%
- viability, T/C [29]: 18.2%
- viability, T/C [30]: 13.6%
- viability, T/C [31]: 98%
- viability, T/C [32]: 92.7%
- viability, T/C [33]: 98%
- viability, T/C [34]: 57.6%
- viability, T/C [35]: 16.9%
- viability, T/C [36]: 16.3%
